Where a name gives a salt, the structure may show the parent alone. Read-outs that look alike come from different tables or passages of the source.
Key:
[1] = in ester or salt form, cited from earlier work
[2] = system: tactile sexual function (TSF); experiment: Self-measured tactile sexual function (TSF) scores C, CT, A, B, BM, BS after ingesting treatment substance(s); details: for TSF when both paroxetine and finasteride were ingested: during use of both drugs; for effect on TSF, stated in words: inventor; for C, A and B scores when combined with Val and NAC: at 60 minutes;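 for all read-outs here: Self-rated by the single male inventor (about 65 kg) after oral intake, capsules unless noted, on the TSF scale, each one-unit score rise means roughly double the sensation intensity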
From the text: Some treatment substances were in liquid form when orally ingested. For the Working Examples herein all treatment substances were in capsule form unless otherwise noted in the Tables herein. […] It is contemplated that the mg per kilogram dose of treatment substances and/or the time from ingesting one or more treatment substances may vary from person to person for optimum improvement in treating a sexual dysfunction (e.g., an SRSS including reduced TSF or absent TSF). In some instances, it is contemplated that ingesting one treatment substance may be done at a different time than ingesting another treatment substance to optimize the effect in treating a sexual dysfunction.
For a male, the A score is the highest intensity of TSF just before the first muscle contraction of ejaculation, and the B score is the highest intensity of TSF just after the first muscle contraction of ejaculation.

ejaculation/orgasm = experiment: Ejaculation scores D (strength of the muscle contractions during ejaculation) and DE (ease to achieve ejaculation), incl. FE/FO; assay type: in vivo, human; details: for effect on D/DE scores, stated in words: Examples with the positive cholinergic; for time after ingestion at which the increase in DE score may peak: before 60 minutes; for average D score / average DE score: when not combined with another listed positive cholinergic
Description: Variations in TSF and other sexual responses were noticed after ingesting a treatment substance, and additional scores to describe these responses were recorded in some examples. In some examples the C score for TSF was localized only to the head (“glands”) of the penis when one or more C score measurements were taken prior to attempted or achieved ejaculation/orgasm. […] In some examples after ingesting a treatment substance, the speed of B score decrease from the first muscle contraction to the last muscle contraction of ejaculation was recorded as the “BS” score using terms such as “IS” for instantaneous loss of TSF where a B score of 0.0 occurred at or immediately after the first muscle contraction, “FT” for a fast loss of TSF, and “SL” for a slow loss of TSF. In some examples the minimum B score measured at or near the last muscle contraction was recorded as the “BM” score using the same scoring parameters as for the B score. […] In some examples the ease to achieve ejaculation was recorded as the “DE” score, with a score of 1.0 being ejaculation achieved with some difficulty, 2.0 being a typical/normal ease of ejaculation, and a 3.0 being of the ease of ejaculation was promoted. […] When a score (e.g., C, CT, A, B, BM, BS, D, DE) was not recorded or not applicable then “N/A” is listed for that score and that score was not used (no numeric score) for mathematical evaluations in such an occurrence.
Dietary vitamins and nutritional supplements were ingested about 7:00 AM to about 10:30 AM with coffee, and coffee consumption ended by about 12:00 PM or earlier. No food was ingested during the day before measurements as only one meal a day is typically eaten in the evening.
Measurements were made in the morning from about 7:30 AM until about 11:30 AM.
Dietary vitamins and nutritional supplements were ingested about 7:00 AM to about 10:30 AM with coffee, and coffee consumption ended by about 12:00 PM or earlier.
No food, dietary vitamins or nutritional supplements were ingested the day of the measurements until after the measurements were taken.

[3] = system: tactile sexual function (TSF); experiment: C score at varying time points after ingestion (duration of effect; rise, peak, fall pattern or decline pattern); assay type: in vivo, human; details: C scores at 20 to 60 minutes
From the text: Table 42 records the increases/decreases in C scores over time as a measure of the duration of the effect of ingesting a treatment substance on TSF, for some working examples listed in previous tables. These working examples measured TSF for C scores at varying time points after the first ingestion of a treatment substance and before the measurement of the B score. Negative time scores indicate that the C score measurement occurred prior to ingesting a treatment substance, such as at example T37:82 the […] time is listed as −20 as the measurement for the C score at the C1 time was made 20 minutes before ingesting the treatment substance. In some examples additional rows were used to record C scores (e.g., examples T37:82 and T40:1). The duration of the effect of treatment substance(s) on the C score varied, with some reaching a peak C score before the B score measurement (e.g., see example T37:43), and other still increasing in C score to the B score measurement (e.g., see example T41:8).
Early C score measurements, when available, are shown for 20, 30, 40, and/or 50 minutes. […] Individual combinations of Val and NAC and another treatment substance may vary from the average's rise, peak, fall pattern (e.g., T41:120). […]

[4] = Non-sexual side effects associated with ingesting treatment substances; details: for non-sexual side effect / adverse event: after ingesting the treatment substance
[5] = in vivo; cited from earlier work
sexual function = experiment: Additional sexual effects after ingesting treatment substances (C score different, urination sensitivity, ease to ejaculate); assay type: in vivo, human; details: 3000 mg/day, after about a week
mGlu5-R = mGlu5-R (Homo sapiens, UniProt P41594); details: Glu released by Xc- after exchange for Cys2; cited from earlier work
mGlu(2/3)-R = details: rats, striatum; cited from earlier work
[6] = Table 47A, dose in mg per example: Phenibut 450, Homotaurine 50, 150, 200, 250, listed as T38:5
[7] = after the first day of ingesting bupropion
[8] = prolonged daily ingestion (D-Asp 3000 mg/day about a week; bupropion per prescription, following months)
[9] = Table 47A, dose in mg per example: Phenibut 450, Homotaurine 50, 150, 200, 250, listed as T38:18
[10] = Table 39C, ingested at times other than 60 minutes before measurements
[11] = Table 39B, ingested at times other than 60 minutes before measurements, various beverages
[12] = Table 47A, dose in mg per example: Phenibut 450, Homotaurine 50, 150, 200, 250
[13] = Table 47A, dose in mg per example: Phenibut 450, Homotaurine 50, 150, 200, 250, beverage and time as in Tables 37, 38, 39

Chain of mGlu5-R (P41594 21-1212): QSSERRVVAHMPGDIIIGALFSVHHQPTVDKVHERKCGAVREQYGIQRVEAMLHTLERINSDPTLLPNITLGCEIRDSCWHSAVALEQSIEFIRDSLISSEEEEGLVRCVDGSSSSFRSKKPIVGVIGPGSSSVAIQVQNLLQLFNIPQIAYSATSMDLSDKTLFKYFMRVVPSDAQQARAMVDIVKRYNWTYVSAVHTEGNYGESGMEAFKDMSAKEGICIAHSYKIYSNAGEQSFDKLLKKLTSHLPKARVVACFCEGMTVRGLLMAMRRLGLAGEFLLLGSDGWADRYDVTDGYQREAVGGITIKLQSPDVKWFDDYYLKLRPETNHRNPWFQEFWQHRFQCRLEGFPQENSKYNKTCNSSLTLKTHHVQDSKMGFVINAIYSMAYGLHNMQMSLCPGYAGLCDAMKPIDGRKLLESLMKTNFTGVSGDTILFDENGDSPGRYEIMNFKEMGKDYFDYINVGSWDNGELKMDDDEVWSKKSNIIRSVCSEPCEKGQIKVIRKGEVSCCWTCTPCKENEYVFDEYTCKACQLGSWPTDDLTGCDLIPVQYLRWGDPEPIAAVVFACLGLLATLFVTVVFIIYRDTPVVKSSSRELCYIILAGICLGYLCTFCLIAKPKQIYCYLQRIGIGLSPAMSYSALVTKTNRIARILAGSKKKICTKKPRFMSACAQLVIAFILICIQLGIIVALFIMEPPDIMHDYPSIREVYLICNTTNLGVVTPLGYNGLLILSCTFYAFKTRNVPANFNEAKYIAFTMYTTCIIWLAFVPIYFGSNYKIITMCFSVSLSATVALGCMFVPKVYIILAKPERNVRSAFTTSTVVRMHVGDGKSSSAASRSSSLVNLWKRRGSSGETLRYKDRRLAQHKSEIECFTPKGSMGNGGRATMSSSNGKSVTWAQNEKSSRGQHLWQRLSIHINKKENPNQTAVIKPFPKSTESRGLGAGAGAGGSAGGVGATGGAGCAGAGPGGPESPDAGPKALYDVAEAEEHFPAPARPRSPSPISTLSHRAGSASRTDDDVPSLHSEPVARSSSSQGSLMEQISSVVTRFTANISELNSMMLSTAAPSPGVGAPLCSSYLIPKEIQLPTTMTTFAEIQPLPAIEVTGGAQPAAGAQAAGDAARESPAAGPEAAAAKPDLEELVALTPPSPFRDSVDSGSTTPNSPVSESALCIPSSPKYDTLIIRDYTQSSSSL

C[C@@H](O)CC(=O)O [D-Beta-Hydroxybutyrate]
blood ketone bodies such as D-Beta-Hydroxybutyrate ([1]; 12 grams): 1.0 mM | blood ketone bodies such as D-Beta-Hydroxybutyrate ([1]; 24 grams): 2.8 mM

Fc1ccc([C@@H]2CCNC[C@H]2COc2ccc3c(c2)OCO3)cc1 [paroxetine, reference compound]
TSF after discontinuing paroxetine use ([2]; finasteride continued): absence of TSF continued much to most of the time | TSF when both paroxetine and finasteride were ingested ([2]; oral, per prescription): complete lack of TSF

CCNC(=O)CC[C@H](N)C(=O)O [theanine, Theanine]
number of Examples with failure to ejaculate (ejaculation/orgasm; of 14 Examples having theanine as a treatment substance, 12 failures in all Examples): 3

CC(C)[C@H](N)C(=O)O [Val, Valine]
effect on TSF, stated in words [2]: stronger improvement in TSF than either Leu or Ile

COc1ccc2c3c1O[C@H]1C[C@@H](O)C=C[C@@]31CCN(C)C2 [Galantamine HBr, Galantamine Hydrobromide, reference compound]
effect on D/DE scores, stated in words (ejaculation/orgasm): generally had improved D/DE scores | time after ingestion at which the increase in DE score may peak (ejaculation/orgasm): about 40 minutes | average D score (ejaculation/orgasm): about 3.6 | average DE score (ejaculation/orgasm): 2.4

NCCCS(=O)(=O)O [Example T38: 5, Homotaurine]
C score ([2]; Table 47A, dose in mg per example: Phenibut 450, Homotaurine 50, 150, 200, 250, beverage and time as in Tables 37, 38, 39, listed as T38:5): 1.8 | A score [2, 6]: 9.5 | B score [2, 6]: 9.5

CC(=O)N[C@@H](CS)C(=O)O [NAC, N-Acetyl-Cysteine, reference compound]
effect on TSF, stated in words [2]: no positive effect was noticed on TSF

O=C1c2c(O)cc(O)cc2O[C@H](c2cc(O)c(O)c(O)c2)[C@H]1O [dihydromyricetin, Dihydromyricetin]
C score pattern over time when ingested alone [3]: decline pattern | C, A and B scores when combined with Val and NAC [2]: C, A and B scores less than the lowest C, A and B scores of Val and NAC alone | effect on TSF, stated in words [2]: reduced positive TSF scores

CC(C)(C)NC(=O)[C@H]1CC[C@H]2[C@@H]3CC[C@H]4NC(=O)C=C[C@]4(C)[C@H]3CC[C@]12C [Finasteride, reference compound]
TSF when both paroxetine and finasteride were ingested ([2]; oral, per prescription): complete lack of TSF | effect on TSF while ingesting the drug ([2]; oral, per prescription, inventor before SRSS): moderately reduced TSF

CC(NC(C)(C)C)C(=O)c1cccc(Cl)c1 (centres unmarked) [Bupropion, reference compound]
D score (ejaculation/orgasm; [7]): 3.0 | DE score (ejaculation/orgasm; [7]): 2.0 | D score (ejaculation/orgasm; [8]): 3.0 | DE score (ejaculation/orgasm; [8]): 2.0 | non-sexual side effect / adverse event [4]: feeling odd/under the influence of a drug | A score [2, 7]: about 4 | B score [2, 7]: about 4 | C score [2, 7]: less than 1 | A score [2, 8]: 0 | B score [2, 8]: 0 | BM score [2, 8]: 0 | C score [2, 8]: 0

CN[C@H](CC(=O)O)C(=O)O [NMDA, N-Methyl-D-Aspartic Acid, reference compound]
effect on TSF, stated in words [2]: negative effect on TSF scores

NCCCS(=O)(=O)O [Example T38: 18, Homotaurine]
C score ([2]; Table 47A, dose in mg per example: Phenibut 450, Homotaurine 50, 150, 200, 250, beverage and time as in Tables 37, 38, 39, listed as T38:18): 1.0 | A score [2, 9]: 9.2 | B score [2, 9]: 9.2

C/C=C1\[C@H]2C=C(C)C[C@]1(N)c1ccc(=O)[nH]c1C2 [Huperzine A]
effect on D/DE scores, stated in words (ejaculation/orgasm): also had Examples of improved D/DE scores | time after ingestion at which the increase in DE score may peak (ejaculation/orgasm): about 40 minutes | average D score (ejaculation/orgasm): 3 | average DE score (ejaculation/orgasm): 1.9

NCCCC(=O)O [GABA, gamma-aminobutyric acid]
effect on TSF, stated in words [2]: mild improvement in TSF relative to Val

CC(=O)N[C@@H](CCC(N)=O)C(=O)O [AcetylGln, N-Acetyl L-Glutamine]
effect on TSF, stated in words [2]: relatively weak effect

Cn1c(=O)c2c(ncn2C)n(C)c1=O [caffeine, Caffeine]
average plasma half-life [5]: 5 h

COc1ccc(-c2oc3c(CC=C(C)C)c(O[C@@H]4O[C@H](CO)[C@@H](O)[C@H](O)[C@H]4O)cc(O)c3c(=O)c2O[C@@H]2O[C@@H](C)[C@H](O)[C@@H](O)[C@H]2O)cc1 [icariin, Icariin]
C, A and B scores when combined with Val and NAC [2]: C score below a preferred C score and A and B scores that matched the lowest A and B scores of Val and NAC alone

N[C@H](CC(=O)O)C(=O)O [D-Asp, D-Aspartic Acid]
D score (ejaculation/orgasm; [8]): 3.0 | DE score (ejaculation/orgasm; [8]): 2.0 | non-sexual side effect / adverse event [4]: a small bump from a varicose vein developed on the penis | A score [2, 8]: 0 | B score [2, 8]: 0 | BM score [2, 8]: 0 | C score [2, 8]: 0 | physical arousal (erections) (sexual function): extremely promoted

N[C@@H](CCC(=O)O)C(=O)O [Glu, Glutamic Acid]
Glu level at which the extrasynaptic mGlu5-R becomes activated (mGlu5-R): 500 µM | Glu concentration that activated the mGlu(2/3)-R (mGlu(2/3)-R): 0.5 µM

NCC(CC(=O)O)c1ccccc1 (centres unmarked) [T39:13, Phenibut HCl]
D score (strength of the muscle contractions during ejaculation) (ejaculation/orgasm; [10]): 4.0 | DE score (ease to achieve ejaculation) (ejaculation/orgasm; [10]): 2.0 | Side Effect ([4]; non-sexual side effect after ingesting treatment substance(s)): Felt not normal | Time of Side Effect ([4]; time after ingesting treatment substance(s), sometimes approximated): 20 to 120 min | A score [2, 11]: 6.5 | B score [2, 11]: 6.5 | C score [2, 11]: 1.5 | A score [2, 10]: 6.5 | B score [2, 10]: 6.5 | C score [2, 10]: 1.5 | A score [2, 12]: 6.5 | B score [2, 12]: 6.5 | C score [2, 13]: 1.5

NCC(CC(=O)O)c1ccccc1 (centres unmarked) [phenibut, Phenibut HCl]
effect on TSF, stated in words [2]: weaker effect on improving A/B TSF scores

NCCCS(=O)(=O)O [T37:56, Homotaurine]
A score [2, 12]: 7.5 | B score [2, 12]: 7.5 | C score [2, 13]: 1.2

COc1ccc([C@@H]2CC(=O)c3c(O)cc(O[C@@H]4O[C@H](CO[C@@H]5O[C@@H](C)[C@H](O)[C@@H](O)[C@H]5O)[C@@H](O)[C@H](O)[C@H]4O)cc3O2)cc1O [hesperidin, Hesperidin]
C score pattern over time when combined with Val and NAC [3]: rise, peak, fall pattern of C scores and not a high C, A, and/or B scores

NCCCS(=O)(=O)O [T37:57, Homotaurine]
A score [2, 12]: 9.2 | B score [2, 12]: 9.2 | C score [2, 13]: 1.2

— patent US20250152601A1, “Compositions and Methods for the Treatment of Sexual Dysfunctions” (The Jonathan Hurt Living Trust, priority 2022, published 2025)
